Columns and labels:
[1] = system: Tyrosine-protein kinase ABL1 (Homo sapiens), P00519 [H396P]; conditions: Compound concentration 100.0 nM
[2] = molecular target: Activin receptor type-1 (Homo sapiens) (UniProt Q04771); conditions: Compound concentration 100.0 nM
[3] = molecular target: Activin receptor type-2A (Homo sapiens) (UniProt P27037); conditions: Compound concentration 100.0 nM
[4] = molecular target: Ankyrin repeat and protein kinase domain-containing protein 1 (Homo sapiens) (UniProt Q8NFD2); conditions: Compound concentration 100.0 nM
[5] = molecular target: Bone morphogenetic protein receptor type-1A (Homo sapiens) (UniProt P36894); conditions: Compound concentration 100.0 nM
[6] = molecular target: Protein-tyrosine kinase 6 (Homo sapiens) (UniProt Q13882); conditions: Compound concentration 100.0 nM
[7] = molecular target: Cyclin-dependent kinase 13 (Homo sapiens) (UniProt Q14004); conditions: Compound concentration 100.0 nM
[8] = molecular target: Cyclin-dependent kinase 9 (Homo sapiens) (UniProt P50750); conditions: Compound concentration 100.0 nM
Chain of Cyclin-dependent kinase 9 (Homo sapiens) (P50750 whole entry): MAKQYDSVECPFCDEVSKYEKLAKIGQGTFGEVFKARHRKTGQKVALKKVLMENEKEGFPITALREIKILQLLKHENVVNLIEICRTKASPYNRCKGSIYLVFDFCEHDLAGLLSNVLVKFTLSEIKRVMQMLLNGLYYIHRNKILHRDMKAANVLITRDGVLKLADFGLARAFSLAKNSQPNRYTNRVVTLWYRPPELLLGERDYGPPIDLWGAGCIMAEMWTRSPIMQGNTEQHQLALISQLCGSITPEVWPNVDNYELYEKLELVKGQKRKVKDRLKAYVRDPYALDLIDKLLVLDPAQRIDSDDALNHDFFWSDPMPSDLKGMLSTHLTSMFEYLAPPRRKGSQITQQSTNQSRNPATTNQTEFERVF

[9] = molecular target: Dual specificity protein kinase CLK1 (Homo sapiens) (UniProt P49759); conditions: Compound concentration 100.0 nM
[10] = molecular target: Dual specificity protein kinase CLK4 (Homo sapiens) (UniProt Q9HAZ1); conditions: Compound concentration 100.0 nM
Chain of Dual specificity protein kinase CLK4 (Homo sapiens) (Q9HAZ1 whole entry, looked up): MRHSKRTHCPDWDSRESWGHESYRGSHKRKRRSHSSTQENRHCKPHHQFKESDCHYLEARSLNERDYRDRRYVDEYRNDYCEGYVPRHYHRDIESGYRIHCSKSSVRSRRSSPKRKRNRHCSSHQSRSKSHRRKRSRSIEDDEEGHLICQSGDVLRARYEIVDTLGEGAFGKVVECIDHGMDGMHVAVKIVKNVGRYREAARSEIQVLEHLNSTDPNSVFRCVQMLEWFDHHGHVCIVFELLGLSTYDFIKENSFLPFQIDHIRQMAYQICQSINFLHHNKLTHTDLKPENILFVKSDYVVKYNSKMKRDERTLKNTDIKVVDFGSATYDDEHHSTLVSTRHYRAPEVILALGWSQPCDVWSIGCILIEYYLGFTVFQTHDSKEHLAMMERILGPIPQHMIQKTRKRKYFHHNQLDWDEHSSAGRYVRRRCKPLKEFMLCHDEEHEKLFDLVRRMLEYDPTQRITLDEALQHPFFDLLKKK

[11] = molecular target: Casein kinase II subunit alpha (Homo sapiens) (UniProt P68400); conditions: Compound concentration 100.0 nM
[12] = molecular target: Ephrin type-A receptor 7 (Homo sapiens) (UniProt Q15375); conditions: Compound concentration 100.0 nM
[13] = molecular target: Focal adhesion kinase 1 (Homo sapiens) (UniProt Q05397); conditions: Compound concentration 100.0 nM
[14] = molecular target: Fibroblast growth factor receptor 2 (Homo sapiens) (UniProt P21802); conditions: Compound concentration 100.0 nM
[15] = system: Receptor-type tyrosine-protein kinase FLT3 (Homo sapiens), P36888 [D835V]; conditions: Compound concentration 100.0 nM
[16] = system: Receptor-type tyrosine-protein kinase FLT3 (Homo sapiens), P36888 [K663Q]; conditions: Compound concentration 100.0 nM
[17] = molecular target: Receptor-type tyrosine-protein kinase FLT3 (Homo sapiens) (UniProt P36888); conditions: Compound concentration 100.0 nM
[18] = molecular target: Rhodopsin kinase GRK7 (Homo sapiens) (UniProt Q8WTQ7); conditions: Compound concentration 100.0 nM
[19] = molecular target: Glycogen synthase kinase-3 alpha (Homo sapiens) (UniProt P49840); conditions: Compound concentration 100.0 nM
[20] = molecular target: Serine/threonine-protein kinase ICK (Homo sapiens) (UniProt Q9UPZ9); conditions: Compound concentration 100.0 nM
[21] = system: Mast/stem cell growth factor receptor Kit (Homo sapiens), P10721 [V559D]; conditions: Compound concentration 100.0 nM
[22] = molecular target: MAP kinase-interacting serine/threonine-protein kinase 2 (Homo sapiens) (UniProt Q9HBH9); conditions: Compound concentration 100.0 nM
[23] = molecular target: Serine/threonine-protein kinase 4 (Homo sapiens) (UniProt Q13043); conditions: Compound concentration 100.0 nM
[24] = molecular target: Serine/threonine-protein kinase PAK 2 (Homo sapiens) (UniProt Q13177); conditions: Compound concentration 100.0 nM
Chain of Serine/threonine-protein kinase PAK 2 (Homo sapiens) (Q13177 whole entry): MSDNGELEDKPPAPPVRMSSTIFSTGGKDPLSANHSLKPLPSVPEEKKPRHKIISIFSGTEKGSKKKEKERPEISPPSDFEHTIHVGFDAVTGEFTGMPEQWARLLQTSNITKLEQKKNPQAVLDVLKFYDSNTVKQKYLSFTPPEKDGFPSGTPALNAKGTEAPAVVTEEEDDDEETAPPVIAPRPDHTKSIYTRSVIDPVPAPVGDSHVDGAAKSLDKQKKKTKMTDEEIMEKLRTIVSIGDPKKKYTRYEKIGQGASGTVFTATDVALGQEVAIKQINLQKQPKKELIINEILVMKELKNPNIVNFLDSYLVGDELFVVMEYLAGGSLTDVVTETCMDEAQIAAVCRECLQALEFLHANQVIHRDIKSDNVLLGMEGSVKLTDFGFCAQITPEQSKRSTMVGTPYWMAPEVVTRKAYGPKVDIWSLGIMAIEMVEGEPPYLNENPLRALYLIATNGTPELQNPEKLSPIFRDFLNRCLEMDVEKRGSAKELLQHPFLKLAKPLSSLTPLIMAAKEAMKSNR

[25] = molecular target: Cyclin-dependent kinase 14 (Homo sapiens) (UniProt O94921); conditions: Compound concentration 100.0 nM
Chain of Cyclin-dependent kinase 14 (Homo sapiens) (O94921 whole entry, the tested form may be a part): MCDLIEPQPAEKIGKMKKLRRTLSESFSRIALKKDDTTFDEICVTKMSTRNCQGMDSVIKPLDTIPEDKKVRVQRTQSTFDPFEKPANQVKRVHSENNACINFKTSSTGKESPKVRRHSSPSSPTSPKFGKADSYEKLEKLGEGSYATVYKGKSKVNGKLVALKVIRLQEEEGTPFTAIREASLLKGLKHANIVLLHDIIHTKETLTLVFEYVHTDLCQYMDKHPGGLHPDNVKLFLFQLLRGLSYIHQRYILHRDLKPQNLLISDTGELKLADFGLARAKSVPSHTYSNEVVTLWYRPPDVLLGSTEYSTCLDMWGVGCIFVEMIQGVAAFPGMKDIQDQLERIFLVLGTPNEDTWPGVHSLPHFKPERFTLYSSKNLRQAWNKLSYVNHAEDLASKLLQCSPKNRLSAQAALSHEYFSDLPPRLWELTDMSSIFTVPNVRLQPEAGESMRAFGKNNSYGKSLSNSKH

[26] = molecular target: Phosphatidylinositol 4-phosphate 3-kinase C2 domain-containing subunit beta (Homo sapiens) (UniProt O00750); conditions: Compound concentration 100.0 nM
Chain of Phosphatidylinositol 4-phosphate 3-kinase C2 domain-containing subunit beta (Homo sapiens) (O00750 whole entry, the tested form may be a part): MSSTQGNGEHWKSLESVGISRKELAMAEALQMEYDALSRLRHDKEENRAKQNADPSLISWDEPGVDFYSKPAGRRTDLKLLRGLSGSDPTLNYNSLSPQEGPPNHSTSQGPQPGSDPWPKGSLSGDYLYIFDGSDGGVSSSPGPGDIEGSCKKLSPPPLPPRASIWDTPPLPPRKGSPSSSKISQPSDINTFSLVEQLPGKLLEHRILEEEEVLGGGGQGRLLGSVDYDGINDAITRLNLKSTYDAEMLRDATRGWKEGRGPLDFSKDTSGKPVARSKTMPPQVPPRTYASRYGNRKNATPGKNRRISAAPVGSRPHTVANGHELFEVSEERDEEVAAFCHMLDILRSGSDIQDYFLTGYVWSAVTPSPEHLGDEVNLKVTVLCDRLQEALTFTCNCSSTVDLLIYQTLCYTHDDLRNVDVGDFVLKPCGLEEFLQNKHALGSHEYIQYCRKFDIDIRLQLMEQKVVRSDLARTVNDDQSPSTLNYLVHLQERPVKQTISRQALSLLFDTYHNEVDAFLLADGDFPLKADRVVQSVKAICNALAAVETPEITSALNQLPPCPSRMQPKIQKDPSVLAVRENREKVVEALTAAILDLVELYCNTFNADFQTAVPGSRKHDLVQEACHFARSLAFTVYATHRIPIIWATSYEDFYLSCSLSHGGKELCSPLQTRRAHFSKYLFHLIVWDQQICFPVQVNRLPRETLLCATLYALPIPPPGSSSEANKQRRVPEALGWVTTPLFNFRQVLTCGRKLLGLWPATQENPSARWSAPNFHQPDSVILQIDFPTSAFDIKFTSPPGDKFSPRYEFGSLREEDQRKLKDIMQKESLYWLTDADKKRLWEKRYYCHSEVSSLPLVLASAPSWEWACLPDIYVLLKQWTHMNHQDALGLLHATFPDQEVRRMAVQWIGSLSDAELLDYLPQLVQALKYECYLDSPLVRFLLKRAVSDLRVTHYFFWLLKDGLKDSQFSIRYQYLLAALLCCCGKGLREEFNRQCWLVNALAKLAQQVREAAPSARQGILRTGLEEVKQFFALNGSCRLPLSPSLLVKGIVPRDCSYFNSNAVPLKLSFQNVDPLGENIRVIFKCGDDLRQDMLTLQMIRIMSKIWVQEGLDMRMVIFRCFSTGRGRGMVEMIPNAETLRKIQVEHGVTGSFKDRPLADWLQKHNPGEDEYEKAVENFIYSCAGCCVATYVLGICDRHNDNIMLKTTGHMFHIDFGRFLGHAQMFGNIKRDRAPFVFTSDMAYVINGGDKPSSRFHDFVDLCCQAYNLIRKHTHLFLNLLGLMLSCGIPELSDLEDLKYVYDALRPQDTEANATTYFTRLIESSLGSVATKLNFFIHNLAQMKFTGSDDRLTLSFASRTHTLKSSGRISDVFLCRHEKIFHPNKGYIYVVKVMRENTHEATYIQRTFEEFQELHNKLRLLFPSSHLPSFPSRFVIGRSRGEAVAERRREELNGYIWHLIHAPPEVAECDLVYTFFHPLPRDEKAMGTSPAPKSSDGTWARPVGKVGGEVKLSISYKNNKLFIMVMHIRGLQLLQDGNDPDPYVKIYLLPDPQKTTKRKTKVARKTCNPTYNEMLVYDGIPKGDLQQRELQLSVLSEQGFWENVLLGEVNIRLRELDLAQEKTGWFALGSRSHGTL

[27] = molecular target: Serine/threonine-protein kinase PLK3 (Homo sapiens) (UniProt Q9H4B4); conditions: Compound concentration 100.0 nM
[28] = molecular target: Serine/threonine-protein kinase RIO3 (Homo sapiens) (UniProt O14730); conditions: Compound concentration 100.0 nM
[29] = molecular target: Ribosomal protein S6 kinase alpha-2 (Homo sapiens) (UniProt Q15349); conditions: Compound concentration 100.0 nM
[30] = molecular target: Non-receptor tyrosine-protein kinase TNK1 (Homo sapiens) (UniProt Q13470); conditions: Compound concentration 100.0 nM
[31] = molecular target: D(1A) dopamine receptor (Homo sapiens) (UniProt P21728); conditions: Compound concentration 10.0 uM
Chain of D(1A) dopamine receptor (Homo sapiens) (P21728 whole entry): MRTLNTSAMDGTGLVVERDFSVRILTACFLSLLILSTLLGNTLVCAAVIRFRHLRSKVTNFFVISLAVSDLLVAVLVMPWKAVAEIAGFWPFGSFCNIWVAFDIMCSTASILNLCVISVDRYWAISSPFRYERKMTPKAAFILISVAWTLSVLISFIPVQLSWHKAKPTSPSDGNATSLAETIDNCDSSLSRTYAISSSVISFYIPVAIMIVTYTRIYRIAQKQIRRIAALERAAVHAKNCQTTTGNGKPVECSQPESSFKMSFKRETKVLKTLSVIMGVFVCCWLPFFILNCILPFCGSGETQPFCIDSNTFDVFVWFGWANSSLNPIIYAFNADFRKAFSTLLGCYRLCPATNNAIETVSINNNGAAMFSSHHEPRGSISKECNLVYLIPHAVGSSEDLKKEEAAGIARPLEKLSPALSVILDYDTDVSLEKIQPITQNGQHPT

[32] = molecular target: Beta-1 adrenergic receptor (Homo sapiens) (UniProt P08588); conditions: Compound concentration 10.0 uM
[33] = molecular target: Muscarinic acetylcholine receptor M1 (Homo sapiens) (UniProt P11229); conditions: Compound concentration 10.0 uM
Chain of Muscarinic acetylcholine receptor M1 (Homo sapiens) (P11229 whole entry): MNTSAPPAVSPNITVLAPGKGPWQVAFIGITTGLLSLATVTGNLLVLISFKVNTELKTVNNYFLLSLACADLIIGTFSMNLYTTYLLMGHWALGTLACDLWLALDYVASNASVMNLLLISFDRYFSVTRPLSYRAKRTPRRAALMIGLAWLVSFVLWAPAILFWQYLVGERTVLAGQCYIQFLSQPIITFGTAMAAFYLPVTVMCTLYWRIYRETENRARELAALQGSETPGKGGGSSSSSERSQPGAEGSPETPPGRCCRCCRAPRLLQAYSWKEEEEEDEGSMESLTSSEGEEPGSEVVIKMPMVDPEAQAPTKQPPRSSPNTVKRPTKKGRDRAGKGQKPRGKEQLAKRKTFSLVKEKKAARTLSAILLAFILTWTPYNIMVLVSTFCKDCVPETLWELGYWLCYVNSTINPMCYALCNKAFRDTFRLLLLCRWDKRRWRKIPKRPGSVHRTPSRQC

[34] = molecular target: Muscarinic acetylcholine receptor M5 (Homo sapiens) (UniProt P08912); conditions: Compound concentration 10.0 uM
Chain of Muscarinic acetylcholine receptor M5 (Homo sapiens) (P08912 whole entry): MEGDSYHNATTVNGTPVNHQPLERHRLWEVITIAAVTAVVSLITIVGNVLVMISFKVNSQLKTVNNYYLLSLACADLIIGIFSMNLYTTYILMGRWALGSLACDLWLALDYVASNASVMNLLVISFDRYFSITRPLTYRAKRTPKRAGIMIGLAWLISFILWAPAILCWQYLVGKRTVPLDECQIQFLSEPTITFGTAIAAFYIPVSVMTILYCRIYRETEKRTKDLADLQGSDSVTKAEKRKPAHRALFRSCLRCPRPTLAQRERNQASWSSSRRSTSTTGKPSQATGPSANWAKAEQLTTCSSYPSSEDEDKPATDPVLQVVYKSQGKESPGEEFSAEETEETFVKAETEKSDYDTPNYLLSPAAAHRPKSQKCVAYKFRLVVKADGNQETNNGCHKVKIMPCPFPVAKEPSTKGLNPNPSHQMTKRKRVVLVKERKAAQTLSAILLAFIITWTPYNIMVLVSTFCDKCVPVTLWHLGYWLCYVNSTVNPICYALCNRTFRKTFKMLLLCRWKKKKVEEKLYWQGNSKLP

Cn1cc(Cl)c2c(Oc3c(F)cc(Nc4cc(Cl)nc(N)n4)cc3F)ccnc21 [BAY-4900]
inactive: residual activity [1] 95% | residual activity [2] 85% | residual activity [3] 87% | residual activity [4] 83% | residual activity [5] 95% | residual activity [6] 86% | residual activity [7] 77% | residual activity [8] 100% | residual activity [9] 96% | residual activity [10] 100% | residual activity [11] 98% | residual activity [12] 96% | residual activity [13] 100% | residual activity [14] 98% | residual activity [15] 91% | residual activity [16] 100% | residual activity [17] 83% | residual activity [18] 82% | residual activity [19] 99% | residual activity [20] 100% | residual activity [21] 96% | residual activity [22] 90% | residual activity [23] 94% | residual activity [24] 100% | residual activity [25] 100% | residual activity [26] 83% | residual activity [27] 98% | residual activity [28] 93% | residual activity [29] 100% | residual activity [30] 100% | inhibition [31] 13.2% | inhibition [32] -2.51% | inhibition [33] -5.04% | inhibition [34] 3.3%

Cc1c[nH]c2nccc(Oc3c(F)cc(Nc4cc(Cl)nc(N)n4)cc3F)c12 [BAY-549]
inactive: residual activity [1] 95% | residual activity [2] 94% | residual activity [3] 94% | residual activity [4] 85% | residual activity [5] 85% | residual activity [6] 100% | residual activity [7] 73% | residual activity [8] 78% | residual activity [9] 83% | residual activity [10] 86% | residual activity [11] 100% | residual activity [12] 82% | residual activity [13] 100% | residual activity [14] 100% | residual activity [15] 90% | residual activity [16] 87% | residual activity [17] 75% | residual activity [18] 68% | residual activity [19] 95% | residual activity [20] 79% | residual activity [21] 90% | residual activity [22] 90% | residual activity [23] 100% | residual activity [24] 99% | residual activity [25] 100% | residual activity [26] 88% | residual activity [27] 83% | residual activity [28] 93% | residual activity [29] 100% | residual activity [30] 100% | inhibition [31] 16.1% | inhibition [32] 6.86% | inhibition [33] -0.22% | inhibition [34] -3.6%
